# Laboratory results taken from publication PMC5640650, “NatD promotes lung cancer progression by preventing histone H4 serine phosphorylation to activate Slug expression” (Nature Communications, 2017).
# How the values were obtained:
# CK2α = CK2α mRNA and protein expression, H1299 cells; format: cell-based, human; details: vs Scr
# Protocol: Cellular proteins were extracted by RIPA lysis buffer at high salt concentration (420 mM NaCl), and western blot analysis was performed in accordance with standard protocols. Scans of enhanced chemiluminescence (ECL) films showing uncropped blots are presented in Supplementary Fig. 10. […]
# Total RNA from tissue samples and cultured cells was extracted using TRIzol reagent (Invitrogen). cDNAs were synthesized with a HiScript 1st Strand cDNA Synthesis Kit (Vazyme Biotech, China). Quantitative RT-PCR was performed using a FastStart Universal SYBR Green Master (Roche) according to the manufacturer’s instructions in a Rotor-Gene 6000 (Corbett Research) in a final volume of 20 μl. […]
# Supplementary Figure 8. […] (a) Quantitative real-time PCR analysis of NatD and CK2α mRNA levels in scrambled and NatD-KD H1299 cells normalized to GAPDH. […]
# Slug promoter = Slug promoter luciferase reporter assay, H1299 cells; format: cell-based, human; details: 1155-bp Slug promoter in pGL3-basic, beta-galactosidase normalized
# Protocol: Response to the reviewers' comments:
# Q1. In relation to Query 11 where Slug promoter analyses were requested to functionally test the consequences of epigenetic changes, the authors argue “it is less […]
# promoter activity in cytoplasm where functional nucleosomes (composed of histone and DNA) are not formed”. I disagree with the authors’ response since it would invalidate all promoter assays performed in many different situations in which the action of “nuclear” transcription factors is analyzed with exogenous promoters that need to be translocated to the nucleus for functional activity. Thus, although I agree that the epigenetic changes might not be easily reproduced in the exogenous promoters, the authors should made the effort to perform this requested experimental […]
# We agree with the reviewer that the experiment should be performed. Therefore, we cloned a 1155-bp Slug promoter fragment [Ref: Morita T et al., J Cell Biol. 2007, 179(5): 1027-1042] into the pGL3-basic luciferase vector (sequence confirmed by DNA sequencing). The activity of Slug promoter in the different situations (control […]
# NatD) were analyzed; pSV-beta-Gal plasmid expressing beta-galactosidase was used as the normalization control according to Cold Spring Harbor Protocol [Smale ST.
# Beta-galactosidase assay. Cold Spring Harb Protoc 2010: pdb prot5423]. As the […]
substance,measurement,setting,value
"NatD-KD2: Human NatD shRNA KD2: 5′-GGTTGAATGTCTCCATTGA-3′, lentiviral (shRNA lentiviral)",levels of CK2α mRNA or protein,CK2α,no increase
same,Slug promoter luciferase activity,Slug promoter,no significant changes in luciferase activity
